According to patent US12297194B2, “N2-phenylpyrimidine-2,4-diamine compounds, and preparation methods and methods of use thereof” (BRIDGE BIOTHERAPEUTICS, INC., priority 2021, dated 2025):

What was measured:
Type in all cases: cell-based, murine
[1] = biological target: Ba/F3 EGFR Wild-type (Homo sapiens, UniProt P00533); experiment: CellTiter-Glo cell viability, Ba/F3 EGFR wild-type cells; settings: 72 hours, read-out: Ba/F3 EGFR mutant cell (IC50, nM) WT
Experimental: (§1) In order to evaluate an inhibitory ability on wild-type Ba/F3 EGFR and Ba/F3 EGFR mutations in Ba/F3 cell lines by the compounds of Formula 1, the experiment was carried out as described below.
(§2) The measurement of activities on Ba/F3 cells harboring wild-type EGFR and EGFR mutants by the compounds of the present invention were determined utilizing the CELLTITER-GLO™ system from Promega, as follows. The CELLTITER-GLO™ assay is a method for measuring the ATP present in cells to determine the cell viability. Ba/F3 EGFR wild-type and Ba/F3 EGFR L858R/C797S (L/C), Ba/F3 EGFR L858R/T790M/C797S (L/T/C), Ba/F3 EGFR Del19/T790M (D/T), Ba/F3 EGFR Del19/C797S (D/C), Ba/F3 EGFR Del19/T790M/C797S (D/T/C) mutant cell lines were maintained in RPMI1640, containing […], 1% penicillin-streptomycin, […] puromycin. Cells were grown in a humidified incubator at 37° C. with […].
(§3) The analysis of an EGFR inhibitory activity by the compounds was carried out in accordance with the analysis reaction recipe below.
(§4) 2500 cells/90 μL were seeded in 96 well cell culture plate, and after 24 hours, treated with the compounds represented by Formula 1 in concentrations of 0, 0.3, 0.9, 2.7, 8.2, 24.7, 74.1, 222.2, 666.7, 2000 (nM). After the reaction of 72 hours, the plate was incubated for 30 minutes at ambient temperature, and then, was further treated with 100 μL of the CELLTITER-GLO™ reagent and was shaken for 10 minutes at ambient temperature. Finally, measurement of the luminescence values were obtained using the SPECTRAMAX™ iD3 (Molecular Devices), and the IC50 values of the compound were analyzed using the GraphPad Prism program (version 9.0.2, GraphPad Software, Inc.).

[2] = biological target: Ba/F3 EGFR L858R/C797S mutants (Homo sapiens, UniProt P00533, C797S/L858R, cells depend on it); experiment: CellTiter-Glo cell viability, Ba/F3 EGFR L858R/C797S cells; settings: 72 hours, read-out: Ba/F3 EGFR mutant cell (IC50, nM) L/C
Experimental: as §1, §2, §3, §4

[3] = biological target: Ba/F3 EGFR L858R/T790M/C797S mutants (Homo sapiens, UniProt P00533, T790M/C797S/L858R, cells depend on it); experiment: CellTiter-Glo cell viability, Ba/F3 EGFR L858R/T790M/C797S cells; settings: 72 hours, read-out: Ba/F3 EGFR mutant cell (IC50, nM) L/T/C
Experimental: as §1, §2, §3, §4

[4] = biological target: Ba/F3 EGFR Del19/T790M mutants (Homo sapiens, UniProt P00533, T790M, cells depend on it, form not given); experiment: CellTiter-Glo cell viability, Ba/F3 EGFR Del19/T790M cells; settings: 72 hours, read-out: Ba/F3 EGFR mutant cell (IC50, nM) D/T
Experimental: as §1, §2, §3, §4

[5] = biological target: Ba/F3 EGFR Del19/C797S mutants (Homo sapiens, UniProt P00533, C797S, cells depend on it, form not given); experiment: CellTiter-Glo cell viability, Ba/F3 EGFR Del19/C797S cells; settings: 72 hours, read-out: Ba/F3 EGFR mutant cell (IC50, nM) D/C
Experimental: as §1, §2, §3, §4

[6] = biological target: Ba/F3 EGFR Del19/T790M/C797S mutants (Homo sapiens, UniProt P00533, T790M/C797S, cells depend on it, form not given); experiment: CellTiter-Glo cell viability, Ba/F3 EGFR Del19/T790M/C797S cells; settings: 72 hours, read-out: Ba/F3 EGFR mutant cell (IC50, nM) D/T/C
Experimental: as §1, §2, §3, §4

Chain of Ba/F3 EGFR L858R/C797S mutants (P00533 whole entry C797S/L858R): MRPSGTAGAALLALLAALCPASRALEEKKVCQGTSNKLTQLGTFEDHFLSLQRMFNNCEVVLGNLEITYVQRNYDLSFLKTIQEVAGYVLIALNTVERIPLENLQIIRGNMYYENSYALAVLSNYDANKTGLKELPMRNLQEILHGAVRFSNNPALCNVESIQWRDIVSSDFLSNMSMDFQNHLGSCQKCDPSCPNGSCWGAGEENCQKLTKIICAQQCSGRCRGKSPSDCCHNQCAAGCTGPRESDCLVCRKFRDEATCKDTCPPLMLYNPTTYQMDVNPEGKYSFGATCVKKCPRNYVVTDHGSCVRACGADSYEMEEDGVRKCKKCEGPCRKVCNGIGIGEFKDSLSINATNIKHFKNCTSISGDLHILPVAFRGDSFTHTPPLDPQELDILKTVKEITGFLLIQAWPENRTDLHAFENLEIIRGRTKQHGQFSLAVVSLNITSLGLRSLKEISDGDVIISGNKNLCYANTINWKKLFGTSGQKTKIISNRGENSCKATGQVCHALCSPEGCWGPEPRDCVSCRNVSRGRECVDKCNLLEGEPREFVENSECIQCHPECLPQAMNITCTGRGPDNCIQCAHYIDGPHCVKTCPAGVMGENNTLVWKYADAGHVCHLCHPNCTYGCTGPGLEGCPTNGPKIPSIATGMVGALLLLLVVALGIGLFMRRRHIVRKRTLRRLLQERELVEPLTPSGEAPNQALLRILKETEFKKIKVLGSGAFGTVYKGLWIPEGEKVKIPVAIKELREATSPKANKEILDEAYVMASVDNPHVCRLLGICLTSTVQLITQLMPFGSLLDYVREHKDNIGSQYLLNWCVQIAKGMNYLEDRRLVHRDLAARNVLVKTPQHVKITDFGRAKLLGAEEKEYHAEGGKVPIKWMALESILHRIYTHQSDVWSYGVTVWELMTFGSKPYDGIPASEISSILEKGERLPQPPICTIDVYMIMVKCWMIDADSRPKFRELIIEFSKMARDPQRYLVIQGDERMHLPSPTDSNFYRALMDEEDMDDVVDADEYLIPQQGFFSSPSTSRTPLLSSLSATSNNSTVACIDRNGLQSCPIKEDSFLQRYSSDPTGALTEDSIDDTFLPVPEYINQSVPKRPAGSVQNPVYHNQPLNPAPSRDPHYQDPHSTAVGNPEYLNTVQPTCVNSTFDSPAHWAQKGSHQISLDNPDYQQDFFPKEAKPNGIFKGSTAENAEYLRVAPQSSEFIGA
Chain of Ba/F3 EGFR Del19/T790M mutants (P00533 with tags, fused parts or gaps DEL746-750/T790M, form open): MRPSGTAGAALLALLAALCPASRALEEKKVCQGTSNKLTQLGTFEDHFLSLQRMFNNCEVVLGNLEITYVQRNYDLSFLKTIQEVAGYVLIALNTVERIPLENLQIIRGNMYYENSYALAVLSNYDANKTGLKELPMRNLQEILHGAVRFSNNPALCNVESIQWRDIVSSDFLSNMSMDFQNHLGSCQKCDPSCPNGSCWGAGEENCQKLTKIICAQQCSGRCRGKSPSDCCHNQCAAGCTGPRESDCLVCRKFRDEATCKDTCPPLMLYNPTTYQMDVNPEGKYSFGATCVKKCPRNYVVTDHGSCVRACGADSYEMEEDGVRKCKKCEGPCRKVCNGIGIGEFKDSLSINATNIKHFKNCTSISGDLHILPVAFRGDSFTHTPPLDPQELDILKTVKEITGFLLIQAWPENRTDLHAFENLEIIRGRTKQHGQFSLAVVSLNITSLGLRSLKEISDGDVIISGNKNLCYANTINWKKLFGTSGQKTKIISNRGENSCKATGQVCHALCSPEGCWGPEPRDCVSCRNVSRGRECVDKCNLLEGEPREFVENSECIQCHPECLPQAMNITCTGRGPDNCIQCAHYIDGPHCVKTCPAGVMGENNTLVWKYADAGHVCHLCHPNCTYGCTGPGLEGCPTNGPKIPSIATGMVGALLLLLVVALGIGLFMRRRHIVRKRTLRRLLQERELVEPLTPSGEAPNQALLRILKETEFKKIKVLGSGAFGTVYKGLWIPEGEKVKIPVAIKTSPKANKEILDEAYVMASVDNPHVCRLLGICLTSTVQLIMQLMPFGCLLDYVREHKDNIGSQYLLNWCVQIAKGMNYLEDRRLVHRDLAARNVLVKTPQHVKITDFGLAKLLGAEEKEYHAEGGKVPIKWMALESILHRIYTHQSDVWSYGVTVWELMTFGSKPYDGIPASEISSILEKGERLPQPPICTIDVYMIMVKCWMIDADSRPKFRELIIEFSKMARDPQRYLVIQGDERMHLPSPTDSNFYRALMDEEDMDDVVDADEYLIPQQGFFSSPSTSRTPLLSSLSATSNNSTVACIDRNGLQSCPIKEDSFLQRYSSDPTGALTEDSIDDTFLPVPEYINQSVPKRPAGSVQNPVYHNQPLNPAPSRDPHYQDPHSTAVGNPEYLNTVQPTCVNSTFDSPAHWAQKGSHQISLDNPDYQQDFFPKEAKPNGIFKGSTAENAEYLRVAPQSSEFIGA
Chain of Ba/F3 EGFR L858R/T790M/C797S mutants (P00533 whole entry T790M/C797S/L858R): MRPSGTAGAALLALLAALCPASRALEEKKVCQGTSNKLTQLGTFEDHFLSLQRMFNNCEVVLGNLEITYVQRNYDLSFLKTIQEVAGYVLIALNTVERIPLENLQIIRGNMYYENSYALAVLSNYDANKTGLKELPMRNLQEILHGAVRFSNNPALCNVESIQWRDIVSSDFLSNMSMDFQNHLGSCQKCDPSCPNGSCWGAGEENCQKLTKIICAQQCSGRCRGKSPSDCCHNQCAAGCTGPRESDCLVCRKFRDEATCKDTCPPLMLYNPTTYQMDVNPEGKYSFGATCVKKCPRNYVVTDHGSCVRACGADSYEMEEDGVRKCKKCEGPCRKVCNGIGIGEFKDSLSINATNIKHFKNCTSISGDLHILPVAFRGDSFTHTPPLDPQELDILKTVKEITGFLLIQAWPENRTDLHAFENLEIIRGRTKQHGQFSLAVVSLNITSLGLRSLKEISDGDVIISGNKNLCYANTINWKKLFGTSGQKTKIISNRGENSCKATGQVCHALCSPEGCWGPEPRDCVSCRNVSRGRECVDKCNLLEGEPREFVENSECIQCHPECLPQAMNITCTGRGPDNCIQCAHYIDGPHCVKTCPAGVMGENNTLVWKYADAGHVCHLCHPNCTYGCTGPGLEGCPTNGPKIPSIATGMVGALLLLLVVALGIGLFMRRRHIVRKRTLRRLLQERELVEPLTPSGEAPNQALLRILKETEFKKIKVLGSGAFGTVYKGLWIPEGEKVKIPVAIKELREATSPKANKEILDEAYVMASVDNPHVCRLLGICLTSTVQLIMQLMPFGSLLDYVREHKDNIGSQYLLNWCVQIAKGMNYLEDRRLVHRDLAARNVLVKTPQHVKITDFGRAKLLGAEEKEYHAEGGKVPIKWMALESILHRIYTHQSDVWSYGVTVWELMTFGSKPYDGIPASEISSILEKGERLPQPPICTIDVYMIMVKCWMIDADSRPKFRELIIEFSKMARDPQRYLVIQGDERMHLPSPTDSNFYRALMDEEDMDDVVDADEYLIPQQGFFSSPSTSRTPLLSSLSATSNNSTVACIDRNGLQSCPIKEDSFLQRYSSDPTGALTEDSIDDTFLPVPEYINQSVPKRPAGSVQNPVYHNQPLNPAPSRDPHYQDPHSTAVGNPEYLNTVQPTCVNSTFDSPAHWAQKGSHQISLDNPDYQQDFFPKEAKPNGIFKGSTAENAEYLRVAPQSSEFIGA
Chain of Ba/F3 EGFR Wild-type (P00533 whole entry, change not shown): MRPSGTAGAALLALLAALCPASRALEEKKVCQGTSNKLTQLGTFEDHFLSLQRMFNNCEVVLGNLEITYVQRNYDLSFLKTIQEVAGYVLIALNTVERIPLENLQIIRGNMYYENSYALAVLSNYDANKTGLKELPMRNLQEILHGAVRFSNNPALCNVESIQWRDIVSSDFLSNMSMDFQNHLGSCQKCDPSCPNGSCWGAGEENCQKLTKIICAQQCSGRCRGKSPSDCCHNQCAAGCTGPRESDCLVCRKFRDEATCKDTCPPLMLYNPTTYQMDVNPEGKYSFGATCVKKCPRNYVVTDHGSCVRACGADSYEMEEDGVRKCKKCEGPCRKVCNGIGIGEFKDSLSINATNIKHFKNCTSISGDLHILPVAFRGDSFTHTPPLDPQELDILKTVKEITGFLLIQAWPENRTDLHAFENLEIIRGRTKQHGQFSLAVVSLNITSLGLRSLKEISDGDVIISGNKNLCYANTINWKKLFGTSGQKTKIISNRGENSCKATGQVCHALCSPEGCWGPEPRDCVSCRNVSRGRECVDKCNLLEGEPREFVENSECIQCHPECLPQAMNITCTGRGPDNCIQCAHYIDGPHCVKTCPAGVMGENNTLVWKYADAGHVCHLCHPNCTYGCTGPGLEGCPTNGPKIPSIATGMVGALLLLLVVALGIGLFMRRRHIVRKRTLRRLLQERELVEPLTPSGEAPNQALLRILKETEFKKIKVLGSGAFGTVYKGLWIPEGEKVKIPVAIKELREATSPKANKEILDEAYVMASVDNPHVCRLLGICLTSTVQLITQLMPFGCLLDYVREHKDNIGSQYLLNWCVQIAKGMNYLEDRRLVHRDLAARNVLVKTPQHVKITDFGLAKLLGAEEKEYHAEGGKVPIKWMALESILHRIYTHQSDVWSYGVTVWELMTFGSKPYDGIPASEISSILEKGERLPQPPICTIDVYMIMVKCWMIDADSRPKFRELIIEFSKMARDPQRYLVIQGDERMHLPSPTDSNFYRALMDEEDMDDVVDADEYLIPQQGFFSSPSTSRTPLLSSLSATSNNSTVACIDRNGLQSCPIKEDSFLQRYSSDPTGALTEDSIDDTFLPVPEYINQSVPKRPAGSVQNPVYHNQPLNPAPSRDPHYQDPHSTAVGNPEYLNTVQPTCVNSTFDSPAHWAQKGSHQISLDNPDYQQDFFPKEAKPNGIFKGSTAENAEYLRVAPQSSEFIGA

SMILES: CCc1cc(Nc2ncc(Br)c(Nc3ccc4nccnc4c3N(C)S(C)(=O)=O)n2)c(OC)cc1N1CCC(N2CCCCC2)CC1 [Example A44, N-(6-((2-((4-([1,4′-bipiperidin]-1′-yl)-5-ethyl-2-methoxyphenyl)amino)-5-bromopyrimidin-4-yl)amino)quinoxalin-5-yl)-N-methylmethanesulfonamide]
- GI50 [1]: > 2000 nM
- GI50 [2]: 94 nM
- GI50 [3]: 38 nM
- GI50 [4]: 12 nM
- GI50 [5]: 6 nM
- GI50 [6]: 10 nM

SMILES: CCc1cc(Nc2ncc(Br)c(Nc3ccc4nccnc4c3N(C)S(C)(=O)=O)n2)c(OC(C)C)cc1C1CCN(C)CC1 [Example B32, N-(6-((5-bromo-2-((5-ethyl-2-isopropoxy-4-(1-methylpiperidin-4-yl)phenyl)amino)pyrimidin-4-yl)amino)quinoxalin-5-yl)-N-methylmethanesulfonamide]
- GI50 [1]: 851 nM
- GI50 [2]: 200 nM
- GI50 [3]: 83 nM
- GI50 [4]: 154 nM
- GI50 [5]: 172 nM
- GI50 [6]: 29 nM

SMILES: COc1cc(C2CCNCC2)ccc1Nc1ncc(Cl)c(Nc2ccc3nccnc3c2NC(C)=O)n1 [Example D3, N-(6-((5-chloro-2-((2-methoxy-4-(piperidin-4-yl)phenyl)amino)pyrimidin-4-yl)amino)quinoxalin-5-yl)acetamide]
- GI50 [1]: > 2000 nM
- GI50 [2]: 1030 nM
- GI50 [3]: 1180 nM
- GI50 [4]: 678 nM
- GI50 [5]: 378 nM
- GI50 [6]: 717 nM

SMILES: COc1cc(N2CCC(N3CCCC3)CC2)c(C)cc1Nc1ncc(Cl)c(Nc2ccc3nccnc3c2NS(C)(=O)=O)n1 [Example A30, N-(6-((5-chloro-2-((2-methoxy-5-methyl-4-(4-(pyrrolidin-1-yl)piperidin-1-yl)phenyl)amino)pyrimidin-4-yl)amino)quinoxalin-5-yl)methanesulfonamide]
- GI50 [1]: 266 nM
- GI50 [2]: 83 nM
- GI50 [3]: 23 nM
- GI50 [4]: 31 nM
- GI50 [5]: 28 nM
- GI50 [6]: 100 nM

SMILES: CCc1cc(Nc2ncc(Br)c(N(C)c3ccc4nccnc4c3N(C)S(C)(=O)=O)n2)c(OC)cc1N1CCC(N(C)C)CC1 [Example B19, N-(6-((5-bromo-2-((4-(4-(dimethylamino)piperidin-1-yl)-5-ethyl-2-methoxyphenyl)amino)pyrimidin-4-yl)(methyl)amino)quinoxalin-5-yl)-N-methylmethane sulfonamide]
- GI50 [1]: 1410 nM
- GI50 [2]: 182 nM
- GI50 [3]: 82 nM
- GI50 [4]: 20 nM
- GI50 [5]: 36 nM
- GI50 [6]: 25 nM

SMILES: CCc1cc(Nc2ncc(Cl)c(Nc3ccc4nccnc4c3N(C)S(C)(=O)=O)n2)c(OC)cc1N1CCC(N2CCOCC2)CC1 [Example A40, N-(6-((5-chloro-2-((5-ethyl-2-methoxy-4-(4-morpholinopiperidin-1-yl)phenyl)amino)pyrimidin-4-yl)amino)quinoxalin-5-yl)-N-methylmethanesulfonamide]
- GI50 [1]: 845 nM
- GI50 [2]: 50 nM
- GI50 [3]: 94 nM
- GI50 [4]: 10 nM
- GI50 [5]: 10 nM
- GI50 [6]: 12 nM

SMILES: COc1cc(N2CCC(N(C)C)CC2)c(C)cc1Nc1ncc(Br)c(Nc2ccc3nccnc3c2NS(C)(=O)=O)n1 [Example B1, N-(6-((5-bromo-2-((4-(4-(dimethylamino)piperidin-1-yl)-2-methoxy-5-methylphenyl)amino)pyrimidin-4-yl)amino)quinoxalin-5-yl)methanesulfonamide]
- GI50 [1]: 302 nM
- GI50 [2]: 64 nM
- GI50 [3]: 28 nM
- GI50 [4]: 8 nM
- GI50 [5]: 38 nM
- GI50 [6]: 7 nM

SMILES: CCS(=O)(=O)Nc1c(Nc2nc(Nc3cc(C)c(N4CCC(N5CCN(C)CC5)CC4)cc3OC)ncc2Cl)cccc1OC [Example C16, N-(2-((5-chloro-2-((2-methoxy-5-methyl-4-(4-(4-methylpiperazin-1-yl)piperidin-1-yl)phenyl)amino)pyrimidin-4-yl)amino)-6-methoxyphenyl)ethanesulfonamide]
- GI50 [1]: 486 nM
- GI50 [2]: 51 nM
- GI50 [3]: 34 nM
- GI50 [4]: 6 nM
- GI50 [5]: 9 nM
- GI50 [6]: 10 nM

SMILES: COc1cc(C2CCNCC2)ccc1Nc1ncc(Br)c(Nc2ccc3nccnc3c2NS(C)(=O)=O)n1 [Example B18, N-(6-((5-bromo-2-((2-methoxy-4-(piperidin-4-yl)phenyl)amino)pyrimidin-4-yl)amino)quinoxalin-5-yl)methanesulfonamide]
- GI50 [1]: > 2000 nM
- GI50 [2]: 1020 nM
- GI50 [3]: 1440 nM
- GI50 [4]: 598 nM
- GI50 [5]: 725 nM
- GI50 [6]: 818 nM

SMILES: CCc1cc(Nc2ncc(Br)c(Nc3ccc4nccnc4c3N(C)S(C)(=O)=O)n2)c(OC)cc1N1CCC(N2CCN(C)CC2)CC1 [Example A10, N-(6-((5-bromo-2-((5-ethyl-2-methoxy-4-(4-(4-methylpiperazin-1-yl)piperidin-1-yl)phenyl)amino)pyrimidin-4-yl)amino)quinoxalin-5-yl)-N-methylmethane sulfonamide]
- GI50 [1]: 400 nM
- GI50 [2]: 37 nM
- GI50 [3]: 9 nM
- GI50 [4]: 5 nM
- GI50 [5]: 16 nM
- GI50 [6]: 4 nM

SMILES: CCc1cc(Nc2ncc(Br)c(Nc3ccc4nccnc4c3NS(C)(=O)=O)n2)c(OC)cc1N1CCC(N2CCCC2)CC1 [Example A33, N-(6-((5-bromo-2-((5-ethyl-2-methoxy-4-(4-(pyrrolidin-1-yl)piperidin-1-yl)phenyl)amino)pyrimidin-4-yl)amino)quinoxalin-5-yl)methanesulfonamide]
- GI50 [1]: > 2000 nM
- GI50 [2]: 57 nM
- GI50 [3]: 18 nM
- GI50 [4]: 8 nM
- GI50 [5]: 4 nM
- GI50 [6]: 6 nM

SMILES: COc1cc(N2CCC(N3CCN(C)CC3)CC2)c(F)cc1Nc1ncc(Br)c(Nc2ccc3nccnc3c2NS(C)(=O)=O)n1 [Example A27, N-(6-((5-bromo-2-((5-fluoro-2-methoxy-4-(4-(4-methylpiperazin-1-yl)piperidin-1-yl)phenyl)amino)pyrimidin-4-yl)amino)quinoxalin-5-yl)methanesulfonamide]
- GI50 [1]: 183 nM
- GI50 [2]: 184 nM
- GI50 [3]: 65 nM
- GI50 [4]: 27 nM
- GI50 [5]: 101 nM
- GI50 [6]: 192 nM

SMILES: COc1cc(N2CCC(N3CCN(C)CC3)CC2)ccc1Nc1ncc(Cl)c(Nc2ccc3scnc3c2NS(C)(=O)=O)n1 [Example C8, N-(5-((5-chloro-2-((2-methoxy-4-(4-(4-methylpiperazin-1-yl)piperidin-1-yl)phenyl)amino)pyrimidin-4-yl)amino)benzo[d]thiazol-4-yl)methanesulfonamide]
- GI50 [1]: 804 nM
- GI50 [2]: 316 nM
- GI50 [3]: 308 nM
- GI50 [4]: 94 nM
- GI50 [5]: 210 nM
- GI50 [6]: 170 nM

SMILES: CCc1cc(Nc2ncc(Br)c(Nc3ccc4nccnc4c3N(C)S(C)(=O)=O)n2)c(OC)cc1N1CCN(C2CCN(C)CC2)CC1 [Example A49, N-(6-((5-bromo-2-((5-ethyl-2-methoxy-4-(4-(1-methylpiperidin-4-yl)piperazin-1-yl)phenyl)amino)pyrimidin-4-yl)amino)quinoxalin-5-yl)-N-methylmethane sulfonamide]
- GI50 [1]: 243 nM
- GI50 [2]: 15 nM
- GI50 [3]: 64 nM
- GI50 [4]: 4 nM
- GI50 [5]: 10 nM
- GI50 [6]: 4 nM

SMILES: CCc1cc(Nc2ncc(Cl)c(Nc3ccc4nccnc4c3N(C)S(C)(=O)=O)n2)c(OC)cc1N1CCC(N2CC3CCC2CN3C)CC1 (stereo not drawn) [Example A47, N-(6-((5-chloro-2-((5-ethyl-2-methoxy-4-(4-(5-methyl-2,5-diazabicyclo[2.2.2]octan-2-yl)piperidin-1-yl)phenyl)amino)pyrimidin-4-yl)amino)quinoxalin-5-yl)-N-methylmethanesulfonamide]
- GI50 [1]: 730 nM
- GI50 [2]: 125 nM
- GI50 [3]: 64 nM
- GI50 [4]: 17 nM
- GI50 [5]: 7 nM
- GI50 [6]: 25 nM
